# According to patent publication US5057520A, “7-(peptidylpyrolidinyl)naphthyridine antibacterial compounds” (Abbott Laboratories, priority 1989, dated 1991):
# Counter-ions that a name gives are not always drawn.
# Legend:
# [1] = system: P. Aeruginosa A5007; experiment: Acute mouse protection test; type: in vivo; settings: mice infected i.p. with P. Aeruginosa A5007, observed 7 days; for SC (ED50): SC dosing at 1 and 5 hours post-infection; for Oral (ED50): oral dosing at 1 and 5 hours post-infection
# [2] = system: Stap. Aureus NCTC 10649; experiment: Acute mouse protection test; type: in vivo; settings: mice infected i.p. with Stap. Aureus NCTC 10649, observed 7 days; for SC (ED50): SC dosing at 1 and 5 hours post-infection; for Oral (ED50): oral dosing at 1 and 5 hours post-infection
# [3] = Conversion of prodrug to parent drug in whole blood at 37° C.; type: in vitro ADME, Dog
# Procedure: An aqueous solution of prodrug (Z) is spiked into fresh whole blood containing sodium heparin as an anticoagulant. The sample is mixed gently by inversion and placed in a 37° waterbath. At selected time intervals an 0.5 ml aliquot of blood is removed and placed in a chilled 1.5 ml centrifuge tube (ice temperature). Samples are centrifuges at 13,000 rpm for two minutes to separate plasma. An 0.2 ml aliquot of the plasma sample is combined with 0.2 ml internal standard (7-(4-amino-2-methyl-1-pyrrolidinyl)-1-(2,4-difluorophenyl)-6-fluoro-1,4-d ihydro-4-oxo-1,8-naphthyridine-3-carboxylic acid in 0.2M sodium phosphate pH 7.2 buffer) and 6 mls CH2 Cl2 :EtoH (9:1 by volume). Samples are capped and shaken gently for 10 minutes. Samples are centrifuges at 2500 rpm for 10 minutes (4° C.). The aqueous layer is aspirated to waste and the organic layer is transferred to a conical centrifuge tube and evaporated to dryness with a stream of dry air and low heat ([…]). Samples are reconstituted with 0.2 ml mobile phase followed by vortexing. Samples are centrifuges at 2500 rpm for 10 minutes to separate precipitate. The supernatant is transferred to a WISP vial with plastic insert for HPLC analysis.
# [4] = system: E. Coli Juhl; experiment: Acute mouse protection test; type: in vivo; settings: mice infected i.p. with E. Coli JUHL, observed 7 days; for SC (ED50): SC dosing at 1 and 5 hours post-infection; for Oral (ED50): oral dosing at 1 and 5 hours post-infection
# [5] = system: Strep. pyogenes EES 61; experiment: Second in vitro MIC test, Brain Heart Infusion Broth (BHIB); type: cell-based
# [6] = system: Ps. Aeruginosa A5007; experiment: as above; type: cell-based
# [7] = system: Stap. Aureus CMX 553; experiment: as above; type: cell-based
# [8] = system: E. Coli Juhl; experiment: as above; type: cell-based
SMILES,SC (ED50) [1] [mg/kg/day],Oral (ED50) [1] [mg/kg/day],SC (ED50) [2] [mg/kg/day],Oral (ED50) [2] [mg/kg/day],Half Life Dog [3],SC (ED50) [4] [mg/kg/day],Oral (ED50) [4] [mg/kg/day],Solubility pH 7.4 [mg/ml],MIC [5] [mg/L],MIC [6] [mg/L],MIC [7] [mg/L],MIC [8] [mg/L]
CCCC(N)C(=O)NC1CCN(c2cc3c(cc2F)c(=O)c(C(=O)O)cn3-c2ccc(F)cc2F)C1 (stereo not drawn) [Example 26b],6.7,18.2,0.8,27.9,43.4 s,,,,,,,
CCCC(N)C(=O)NC1CCN(c2c(F)cc3c(=O)c(C(=O)O)cn(C4CC4)c3c2F)C1 (stereo not drawn) [Example 26r],2.7,7.3,0.9,3.0,71.7 s,0.2,2.3,,,,,
"CSCC[C@H](NC(=O)[C@@H](N)CCSC)C(=O)NC1CCN(c2nc3c(cc2F)c(=O)c(C(=O)O)cn3-c2ccc(F)cc2F)C1 (stereo partly drawn) [Example 55o, 7-(3-Met-Met-amino-1-pyrrolidinyl)-6-fluoro-1-(2,4-difluorophenyl)-1,4-dih ydro-4-oxo-1,8-naphthyridine-3-carboxylic acid]",,,,,,,,0.31,,,,
CC(N)C(=O)NC1CCN(c2c(F)cc3c(=O)c(C(=O)O)cn(C4CC4)c3c2F)C1 (stereo not drawn) [Example 26s],2.4,5.0,1.3,4.8,,0.1,1.8,,,,,
CCCC(N)C(=O)NC1CCN(c2cc3c(cc2F)c(=O)c(C(=O)O)cn3C2CC2)C1 (stereo not drawn) [Example 26l],2.8,18.2,4.0,,118.5 s,0.5,9.4,,,,,
"NC(=O)C[C@H](N)C(=O)NC1CCN(c2nc3c(cc2F)c(=O)c(C(=O)O)cn3-c2ccc(F)cc2F)C1 (stereo partly drawn) [Example 41, 7-(3-L-Asparagine-amino-1-pyrrolidinyl)-1-(2,4-difluorophenyl)-6-fluoro-1,4-dihydro-4-oxo-1,8-naphthyridine-3-carboxylic acid hydrochloride]",2.8,17.2,0.7,2.9,,,,,,,,
"Cl.Cl.NCCCC[C@H](N)C(=O)NC1CCN(c2nc3c(cc2F)c(=O)c(C(=O)O)cn3-c2ccc(F)cc2F)C1 (stereo partly drawn) [Example 46, 7-(3-Lys-amino-1-pyrrolidinyl)-1-(2,4-difluorophenyl)-6-fluoro-1,4-dihydro-4-oxo-1,8-naphthyridine-3-carboxylic acid dihydrochloride]",4.5,12.5,0.7,3.4,46 m,,,,100,> 100,100,
"CC(C)C[C@H](NC(=O)[C@@H](N)CC(C)C)C(=O)NC1CCN(c2nc3c(cc2F)c(=O)c(C(=O)O)cn3-c2ccc(F)cc2F)C1 (stereo partly drawn) [Example 55q, 7-(3 Leu-Leu-amino-1-pyrrolidinyl)-6-fluoro-1-(2,4-difluorophenyl)-1,4-dihydro- 4-oxo-1,8-naphthyridine-3-carboxylic acid]",,,,,,,,0.19,,,,
"Cl.NCC(=O)N[C@@H](Cc1ccccc1)C(=O)NC1CCN(c2cc3c(cc2F)c(=O)c(C(=O)O)cn3-c2ccc(F)cc2F)C1 (stereo partly drawn) [Example 26jj, 1-(2,4-Difluorophenyl)-6-Fluoro-7-(3-Gly-L-Phe-Amino-1-Pyrrolidinyl)-1,4-Di hydro-4-Oxo-Quinoline-3-Carboxylic Acid Hydrochloride]",,,,,,,,,,,,16
"N[C@@H](Cc1cnc[nH]1)C(=O)NC1CCN(c2nc3c(cc2F)c(=O)c(C(=O)O)cn3-c2ccc(F)cc2F)C1 (stereo partly drawn) [Example 44c, 7-(3-L-histidine-amino-1-pyrrolidinyl)-1-(2,4-difluorophenyl)-6-fluoro-1,4-dihydro-4-oxo-1,8-naphthyridine-3-carboxylic acid hydrochloride]",8.3,51.3,0.7,4.0,,,,,,> 64,,
"CS(=O)(=O)CC[C@H](N)C(=O)NC1CCN(c2nc3c(cc2F)c(=O)c(C(=O)O)cn3-c2ccc(F)cc2F)C1 (stereo partly drawn) [Example 31c, 7-[3-L-Methioninesulfone-Amino-1-Pyrrolidinyl]-1-(2,4-Difluorophenyl)-6-Flu oro-1,4-Dihydro-4-Oxo 1.8-Naphthyridine-3-Carboxylic Acid Hydrochloride]",2.4,7.8,0.5,1.8,,0.2,1.8,,25,,,
CC(C)C(N)C(=O)NC1CCN(c2nc3c(cc2F)c(=O)c(C(=O)O)cn3-c2ccc(F)cc2F)C1 (stereo not drawn) [Example 19],,,,,,,,0.41,,,,
"CSCC[C@H](NC(=O)[C@H](C)N)C(=O)NC1CCN(c2nc3c(cc2F)c(=O)c(C(=O)O)cn3-c2ccc(F)cc2F)C1 (stereo partly drawn) [Example 55n, 7-(3-Ala-Met-amino-1-pyrrolidinyl)-6-fluoro-1-(2,4-difluorophenyl)-1,4-dih ydro-4-oxo-1,8-naphthyridine-3-carboxylic acid]",,,,,,,,2.50,,,,
"N[C@@H](CC(=O)O)C(=O)NC1CCN(c2nc3c(cc2F)c(=O)c(C(=O)O)cn3-c2ccc(F)cc2F)C1 (stereo partly drawn) [Example 45, 7-(3-L-Asp-amino-1-pyrrolidinyl)-1-(2,4-difluorophenyl)-6-fluoro-1,4-dihyd ro-4-oxo-1,8-naphthyridine-3-carboxylic acid hydrochloride]",6.6,13.0,0.7,1.5,,,,2.40,,,,
"CSCC[C@H](NC(=O)[C@@H](N)CC(C)C)C(=O)NC1CCN(c2nc3c(cc2F)c(=O)c(C(=O)O)cn3-c2ccc(F)cc2F)C1 (stereo partly drawn) [Example 55p, 7-(3-Leu-Met-amino-1-pyrrolidinyl)-6-fluoro-1-(2,4-difluorophenyl)-1,4-dih ydro-4-oxo-1,8-naphthyridine-3-carboxylic acid]",,,,,,,,0.06,,,,
CCC[C@H](N)C(=O)NC1CCN(c2nc3c(cc2F)c(=O)c(C(=O)O)cn3CC)C1 (stereo partly drawn) [Example 26ff],10.3,30.5,,,92.6 s,,,,,,,
CCCC(N)C(=O)NC1CCN(c2nc3c(cc2F)c(=O)c(C(=O)O)cn3C2CC2)C1 (stereo not drawn) [Example 26p],2.8,9.1,6.8,4.5,70.1 s,,,,,,,
CC(C)CC(N)C(=O)NC1CCN(c2nc3c(cc2F)c(=O)c(C(=O)O)cn3C2CC2)C1 (stereo not drawn) [Example 26o],3.9,6.2,1.0,4.0,108.6 s,0.2,1.2,,,,,
CC(N)C(=O)NC(Cc1ccccc1)C(=O)NC1CCN(c2nc3c(cc2F)c(=O)c(C(=O)O)cn3-c2ccc(F)cc2F)C1 (stereo not drawn) [Example 11],9.7,65.3,0.7,2.0,10.4 m,,,0.59,,128,16.0,16
CCCC(N)C(=O)NC1CCN(c2cc3c(cc2F)c(=O)c(C(=O)O)cn3-c2ccc(F)cc2)C1 (stereo not drawn) [Example 26h],8.5,101.3,1.0,4.0,51.1 s,0.8,12.1,,,,,0.78
"CC(C)C[C@H](NC(=O)[C@H](C)N)C(=O)NC1CCN(c2nc3c(cc2F)c(=O)c(C(=O)O)cn3-c2ccc(F)cc2F)C1 (stereo partly drawn) [Example 55r, 7-(3-Ala-Leu-amino-1-pyrrolidinyl)-6-fluoro-1-(2,4-difluorophenyl)-1,4-dih ydro-4-oxo-1,8-naphthyridine-3-carboxylic acid]",,,,,,,,2.0,,,,
CCCC(N)C(=O)NC1CCN(c2nc3c(cc2F)c(=O)c(C(=O)O)cn3-c2ccc(F)cc2)C1 (stereo not drawn) [Example 26i],,,0.7,5.3,108.1 s,,,,1.56,,,
